Source: patent publication US7345056B2, “Bridged N-cyclic sulfonamido inhibitors of gamma secretase” (Elan Pharmaceuticals, Inc., priority 2005, dated 2008)

target: T1, gamma-secretase (partially purified extract of IMR-32 cell membranes) (Homo sapiens, UniProt P49768); test: Gamma-secretase APP enzyme assay (cleavage of MBP-C125 Swe at the Aβ40 site, sandwich ELISA); format: biochemical; details: MBP-C125swe substrate, IMR-32 membrane extract, 2 h at 37° C., Aβ40 site cleavage product by ELISA; read-out: γAPP (inhibition, IC50)
T1 construct: a partially purified extract of IMR-32 cell membranes as the gamma-secretase enzyme preparation; endogenous in cells; host or cells: IMR-32 cell membranes, partially purified extract
From the text: The gamma-secretase APP enzyme assay was designed to measure the specific proteolytic cleavage of an APP substrate (MBP-C125 Swe fusion protein) at the Aβ40 site. […] This assay involved two steps beginning with the enzymatic reaction generating a cleavage product that was captured with an immobilized antibody specific for the neo-epitope Aβ40 site. The captured cleavage product was then detected in a sandwich ELISA assay with a biotinylated reporter antibody that is specific to Aβ (17-28). Streptavidin-linked alkaline phosphatase was then added that would generate a fluorescent signal proportional to the amount of cleavage product.
This warmed solution of BigCHAPS(N,N-Bis(3-D-gluconamidopropyl)cholamide) detergent was used to dissolve Brain Extract Type-V (lipid containing a minimum of 40% phosphatidylethanolamine) from Sigma (St. Louis, Mo.) to a concentration of 8 mg/ml. This solution containing BigCHAPS and lipid at 8 mg/ml is then diluted to 0.53 mg/ml lipid with a pre-warmed solution of Hepes and sodium chloride. This final solution containing Hepes buffer, sodium chloride, BigCHAPS detergent and lipid is used to create working solutions of both gamma-secretase (25 Units) and the MBP-C125 substrate (0.05 mg/ml).
Gamma-secretase was then added to a 96-well micro-titre plate and then incubated with various concentrations of inhibitor for 30 minutes at 37° C. MBPC125 substrate was then added to initiate the reaction that would run for two hours at 37° C. The reaction was quenched with the addition of SDS to a final concentration of 0.1% and then 100 μl of the reaction mixture was transferred to a capture ELISA plate and incubated overnight at 4° C. Detection of the cleavage product was performed using a standard sandwich ELISA assay and quantified using a six point standard curve.

Compound	IC50 [nM]
O=S(=O)(c1ccc(Cl)cc1)N1C2CCCC1c1cnn(C3CCCCC3)c1C2 (stereo not shown) [Example 66, 12-(4-Chloro-benzenesulfonyl)-5-cyclohexyl-4,5,12-triaza-tricyclo[6.3.1.0^2,6]dodeca-2(6),3-diene]	250 to 500
O=S(=O)(c1ccc(Cl)cc1)N1C2CCCC1c1c(Cl)n[nH]c1C2 (stereo not shown) [Example 91, 3-Chloro-12-(4-chloro-benzenesulfonyl)-4,5,12-triaza-tricyclo[6.3.1.0^2,6]dodeca-2(6),3-diene]	250 to 500
Nc1ncc2c(n1)CC1CCCC2N1S(=O)(=O)c1ccc(Cl)cc1 (stereo not shown) [Example 87, 13-(4-Chloro-benzenesulfonyl)-4,6,13-triaza-tricyclo[7.3.1.0^2,7]trideca-2(7),3,5-trien-5-ylamine]	100 to 250
C=CCOC(=O)n1cc2c(n1)CC1CCCC2N1S(=O)(=O)c1ccc(Cl)cc1 (stereo not shown) [Example 86, 12-(4-Chloro-benzenesulfonyl)-4,5,12-triaza-tricyclo[6.3.1.0^2,6]dodeca-2,5-diene-4-carboxylic acid allyl ester]	250 to 500
N-[12-(4-Chloro-benzenesulfonyl)-4,5,12-triaza-tricyclo[6.3.1.0^2,6]dodeca-2(6),3-dien-7-yl]-acetamide [Example 98]	< 100
O=S(=O)(c1ccc(Cl)cc1)N1C2CCC1c1cn[nH]c1C2 (stereo not shown) [Example 79, 11-(4-Chloro-benzenesulfonyl)-4,5,11-triaza-tricyclo[6.3.1.0^2,6]undeca-2(6),3-diene]	< 100
O=S(=O)(c1ccc(Cl)cc1)N1C2CCCC1c1cnc3c(-c4ccccc4)cnn3c1C2 (stereo not shown) [Example 62, 16-(4-Chloro-benzenesulfonyl)-6-phenyl-4,8,9,16-tetraaza-tetracyclo-[10,3,1,0^2,10,0^5,9]-hexadeca-2(10),3,5,7-tetraene]	100 to 250
O=S(=O)(c1ccc(Cl)cc1)N1C2CCCC1c1c(C(F)(F)F)n[nH]c1C2 (stereo not shown) [Example 89, 12-(4-Chloro-benzenesulfonyl)-3-trifluoromethyl-4,5,12-triaza-tricyclo-[6.3.1.0^2,6]dodeca-2(6),3-diene]	100 to 250
O=S(=O)(c1ccc(Cl)cc1)N1C2CCCC1c1cnc3cc(-c4ccccc4)nn3c1C2 (stereo not shown) [Example 63, 16-(4-Chloro-benzenesulfonyl)-7-phenyl-4,8,9,16-tetraaza-tetracyclo-[10,3,1,0^2,10,0^5,9]-hexadeca-2(10),3,5,7-tetraene]	250 to 500
Cn1ncc2c1CC1CCCC2N1S(=O)(=O)c1ccc(Cl)cc1 (stereo not shown) [Example 53, 12-(4-Chloro-benzenesulfonyl)-5-methyl-4,5,12-triaza-tricyclo[6.3.1.0^2,6]dodeca-2(6),3-diene]	250 to 500

Next, values leading:

IC50 [nM]	Compound
< 100	CC(=O)OC(C)(C)C(=O)n1cc2c(n1)CC1CCCC2N1S(=O)(=O)c1ccc(Cl)cc1 (stereo not shown) [Example 85, Acetic acid 2-[12-(4-chloro-benzenesulfonyl)-4,5,12-triaza-tricyclo[6.3.1.0^2,6]dodeca-2,5-dien-4-yl]-1,1-dimethyl-2-oxo-ethyl ester]
< 100	CC(C)C(=O)n1cc2c(n1)CC1CCCC2N1S(=O)(=O)c1ccc(Cl)cc1 (stereo not shown) [Example 84, 1-[12-(4-Chloro-benzenesulfonyl)-4,5,12-triaza-tricyclo[6.3.1.0^2,6]dodeca-2,5-dien-4-yl]-2-methyl-propan-1-one]
< 100	O=S(=O)(c1ccc(Cl)s1)N1C2CCCC1c1cn[nH]c1C2 (stereo not shown) [Example 8, 12-(5-Chloro-thiophene-2-sulfonyl)-4,5,12-triaza-tricyclo[6.3.1.0^2,6]dodeca-2(6),3-diene]
< 100	Nc1n[nH]c2c1C1CCCC(C2)N1S(=O)(=O)c1ccc(Cl)cc1 (stereo not shown) [Example 97, 12-(4-Chloro-benzenesulfonyl)-4,5,12-triaza-tricyclo[6.3.1.0^2,6]dodeca-2(6),3-dien-3-ylamine]
< 100	O=S(=O)(c1ccc(Cl)cc1)N1C2CCCC1C(O)c1[nH]ncc12 (stereo not shown) [Example 36, 12-(4-Chloro-benzenesulfonyl)-4,5,12-triaza-tricyclo[6.3.1.0^2,6]dodeca-2(6),3-dien-7-ol]
< 100	Cc1n[nH]c2c1C1CCCC(C2)N1S(=O)(=O)c1ccc(Cl)cc1 (stereo not shown) [12-(4-Chloro-benzenesulfonyl)-3-methyl-4,5,12-triaza-tricyclo[6.3.1.0^2,6]dodeca-2(6),3-diene]
< 100	Nc1n[nH]c2c1C1CCCC(C2)N1S(=O)(=O)c1ccc(Cl)cc1 (stereo not shown) [Example 94, 12-(4-Chloro-benzenesulfonyl)-4,5,12-triaza-tricyclo[6.3.1.0^2,6]dodeca-2(6),3-dien-3-ylamine]
< 100	CC(=O)n1cc2c(n1)CC1CCCC2N1S(=O)(=O)c1ccc(Cl)cc1 (stereo not shown) [Example 83, 1-[12-(4-Chloro-benzenesulfonyl)-4,5,12-triaza-tricyclo[6.3.1.0^2,6]dodeca-2,5-dien-4-yl]-ethanone]
< 100	O=S(=O)(c1ccc(Cl)cc1)N1C2CCCC1c1c(C(F)(F)F)n[nH]c1C2 (stereo not shown) [Example 82, 12-(4-Chloro-benzenesulfonyl)-3-trifluoromethyl-4,5,12-triaza-tricyclo-[6.3.1.0^2,6]dodeca-2(6),3-diene]
< 100	CC1c2[nH]ncc2C2CCCC1N2S(=O)(=O)c1ccc(Cl)cc1 (stereo not shown) [Example 11, 12-(4-Chloro-benzenesulfonyl)-7-methyl-4,5,12-triaza-tricyclo[6.3.1.0^2,6]dodeca-2(6),3-diene]
< 100	O=S(=O)(c1ccc(Cl)cc1)N1C2CCCC1c1c(C(F)F)n[nH]c1C2 (stereo not shown) [12-(4-Chloro-benzenesulfonyl)-3-difluoromethyl-4,5,12-triaza-tricyclo[6.3.1.0^2,6]dodeca-2(6),3-diene]
< 100	CCC1c2[nH]ncc2C2CCCC1N2S(=O)(=O)c1ccc(Cl)cc1 (stereo not shown) [Example 14, 12-(4-Chloro-benzenesulfonyl)-7-ethyl-4,5,12-triaza-tricyclo[6.3.1.0^2,6]dodeca-2(6),3-diene]
